Test: Acute intervention: nutrikinetics of plasma metabolites after ingestion of O. europaea extract (untargeted HPLC-ESI-QTOF-MS)
Procedure: A total of 25 healthy individuals participated, with an average age of 27 ± 9 years and a mean body mass index (BMI) of 23 ± 3 kg/m^2. None of the participants were taking any medications or nutritional supplements nor did they have any chronic diseases or gastrointestinal issues. The sample size was established based on findings from previous bioavailability research.[14] All participants provided informed consent before participating in the study.
The intervention study was carried out at Miguel Hernández University. Following an overnight fast, the volunteers were categorized into the subsequent groups: a subgroup to evaluate the LC leaf extract (n = 8), another for the OE leaf extract (n = 8), and the placebo subgroup (n = 9). This was a double-blind study, in which sample collection and treatment were carried out uniformly across all three subgroups.
Water was provided ad libitum. Prior to the ingestion of the capsule, a nurse inserted a cannula into the ulnar vein of each volunteer’s nondominant arm, and blood samples were drawn into EDTA-coated tubes at baseline (t = 0). Blood samples were then collected at 0.5, 1, 2, 4, 6, 8, and 10 h after the consumption of the 500 mg capsule. Plasma was separated through centrifugation (10 min at 3000 rpm and 4 °C) and stored at −80 °C until further analysis.
Plasma samples were initially treated using a mixture of methanol and ethanol (50:50; v:v) to remove proteins, following previously reported protocols.[19] During the sample treatment, pooled quality controls (pooled-QC) were prepared by combining equal aliquots from each sample. These QC samples were processed by using the same protocols as the experimental biological samples.
A reversed-phase analytical C18 column (Agilent Zorbax Eclipse Plus, 1.8 μm, 4.6 × 150 mm^2) with a protective cartridge with the same packing was used. MS data were acquired in negative ionization mode, operating in full scan across a mass-to-charge ratio (m/z) range of 50–1700. The analytical method used was adapted from that described by Villegas-Aguilar et al.[19]
Metabolite nutrikinetics were studied using PKSolver, an add-in program for pharmacokinetic data analysis in Microsoft Excel. The time to reach the maximum concentration (observed Tmax) was calculated for each significant metabolite. As an untargeted metabolomic approach was used to detect the circulating metabolites, these were not quantified. Therefore, the maximum concentration (Cmax) and area under the curve (AUC) parameters were calculated in a relative way by using the deconvoluted chromatographic areas. […] Statistical differences were determined by unpaired t tests. All p values less than 0.05 were considered statistically significant.

[1] = 0.5 h after O. europaea extract
[2] = human plasma, 500 mg capsule of O. europaea (OE) extract, oral, mean ± SD

Molecule	Cmax: relative maximum plasma level (human, in vivo, po, 500 mg)	observed Tmax: time required to reach Cmax (human, in vivo, po, 500 mg)	mean chromatographic area in plasma, T0.5 (in vivo)	mean chromatographic area in plasma, T1 (in vivo)	mean chromatographic area in plasma, T2 (in vivo)	mean chromatographic area in plasma, T4 (in vivo)	mean chromatographic area in plasma, T6 (in vivo)	mean chromatographic area in plasma, T8 (in vivo)	mean chromatographic area in plasma, T10 (in vivo)	mean chromatographic area in plasma, T0.5 [1]	mean chromatographic area in plasma, T1 (1 h after O. europaea extract)	mean chromatographic area in plasma, T2 (2 h after O. europaea extract)	mean chromatographic area in plasma, T4 (4 h after O. europaea extract)	mean chromatographic area in plasma, T6 (6 h after O. europaea extract)	mean chromatographic area in plasma, T8 (8 h after O. europaea extract)	mean chromatographic area in plasma, T10 (10 h after O. europaea extract)	Cmax: relative maximum plasma level [2]	observed Tmax: time required to reach Cmax [2]	further results
COc1cc(CCC(=O)O)ccc1O[C@@H]1O[C@H](C(=O)O)[C@@H](O)[C@H](O)[C@H]1O [dihydroferulic acid 4-O-glucuronide]	171 ± 110 relative chromatographic area	2 ± 2 h	74	114	94	113	109	74	41	–	–	–	–	–	–	–	–	–	–
COc1cc(CCC(=O)O)ccc1OS(=O)(=O)O [dihydroferulic acid 4-sulfate]	190 ± 20 relative chromatographic area	1.3 ± 0.4 h	–	–	–	–	–	–	–	–	–	–	–	–	–	–	–	–	–
O=C(Oc1cc(O)c2c(c1)O[C@H](c1cc(O)c(O)c(O)c1)[C@H](O)C2)c1cc(O)c(O)c(O)c1 [epigallocatechin 7-O-gallate]	–	–	–	–	–	–	–	–	–	14	126	12	0	0	0	0	126 ± 30 relative chromatographic area	1 ± 0 h	–
COc1cc(C(=O)O)cc(OC)c1OC [eudesmic acid]	–	–	–	–	–	–	–	–	–	34	120	28	0	0	0	0	120 ± 27 relative chromatographic area	1 ± 0 h	–
COc1cc(-c2oc3cc(O[C@@H]4O[C@@H](C)[C@H](O)[C@@H](O)[C@H]4O)cc(O)c3c(=O)c2O[C@@H]2O[C@H](CO)[C@@H](O)[C@H](O)[C@H]2O)ccc1O [isorhamnetin 3-O-glucoside-7-O-rhamnoside]	–	–	–	–	–	–	–	–	–	34	130	14	0	0	0	0	133 ± 18 relative chromatographic area	0.9 ± 0.2 h	–
C/C=C1/[C@H](O[C@@H]2O[C@H](CO)[C@@H](O)[C@H](O)[C@H]2O)OC=C(C(=O)OC)[C@H]1CC(=O)OCCc1ccc(O)c(O)c1 [oleuropein]	–	–	–	–	–	–	–	–	–	–	–	–	–	–	–	–	–	–	detection in plasma samples (in vivo): not detected as being significant in plasma samples
C=Cc1ccc(O)c(OC)c1 [p-vinylguaiacol]	184 ± 45 relative chromatographic area	1 ± 0 h	90	184	83	0	0	0	0	–	–	–	–	–	–	–	–	–	–
COc1cc(C(=O)O)ccc1OC1OC(C(=O)O)C(O)C(O)C1O (stereo not drawn) [vanillic acid glucuronide]	–	–	–	–	–	–	–	–	–	0	37	77	63	44	22	0	111 ± 48 relative chromatographic area	4 ± 3 h	–
COc1cc(C=O)ccc1O[C@@H]1O[C@H](C(=O)O)[C@@H](O)[C@H](O)[C@H]1O [vanillin glucuronide]	180 ± 66 relative chromatographic area	1 ± 0 h	60	180	121	40	11	0	0	–	–	–	–	–	–	–	–	–	–
O=c1cc(-c2ccc(O)cc2)oc2c([C@@H]3O[C@H](CO)[C@@H](O)[C@H](O)[C@H]3O)c(O)c([C@@H]3O[C@H](CO)[C@@H](O)[C@H](O)[C@H]3O)c(O)c12 [vicenin-2]	137 ± 59 relative chromatographic area	1 ± 0 h	34	137	46	0	0	0	0	–	–	–	–	–	–	–	–	–	–
desoxy elenolic acid	124 ± 24 relative chromatographic area	1.1 ± 0.4 h	56	123	35	0	0	0	0	–	–	–	–	–	–	–	–	–	–
homovanillyl alcohol glucuronide [homovanillyl alcohol glucuronide isomer 1]	–	–	–	–	–	–	–	–	–	–	–	–	–	–	–	0	504 ± 154 relative chromatographic area	1.1 ± 0.3 h	mean chromatographic area in plasma, T0.5 (0.5 h after O. europaea extract, listed as homovanillic alcohol glucuronide isomer 1): 274; mean chromatographic area in plasma, T1 (1 h after O. europaea extract, listed as homovanillic alcohol glucuronide isomer 1): 503; mean chromatographic area in plasma, T2 (2 h after O. europaea extract, listed as homovanillic alcohol glucuronide isomer 1): 372; mean chromatographic area in plasma, T4 (4 h after O. europaea extract, listed as homovanillic alcohol glucuronide isomer 1): 183; mean chromatographic area in plasma, T6 (6 h after O. europaea extract, listed as homovanillic alcohol glucuronide isomer 1): 66; mean chromatographic area in plasma, T8 (8 h after O. europaea extract, listed as homovanillic alcohol glucuronide isomer 1): 26
homovanillyl alcohol glucuronide [homovanillyl alcohol glucuronide isomer 2]	–	–	–	–	–	–	–	–	–	–	–	–	–	–	–	0	735 ± 257 relative chromatographic area	1.6 ± 0.5 h	mean chromatographic area in plasma, T0.5 (0.5 h after O. europaea extract, listed as homovanillic alcohol glucuronide isomer 2): 242; mean chromatographic area in plasma, T1 (1 h after O. europaea extract, listed as homovanillic alcohol glucuronide isomer 2): 677; mean chromatographic area in plasma, T2 (2 h after O. europaea extract, listed as homovanillic alcohol glucuronide isomer 2): 704; mean chromatographic area in plasma, T4 (4 h after O. europaea extract, listed as homovanillic alcohol glucuronide isomer 2): 365; mean chromatographic area in plasma, T6 (6 h after O. europaea extract, listed as homovanillic alcohol glucuronide isomer 2): 165; mean chromatographic area in plasma, T8 (8 h after O. europaea extract, listed as homovanillic alcohol glucuronide isomer 2): 61
hydroxytyrosol glucuronide [hydroxytyrosol glucuronide isomer 1]	–	–	–	–	–	–	–	–	–	724	955	463	158	61	28	0	1002 ± 411 relative chromatographic area	0.9 ± 0.2 h	–
hydroxytyrosol sulfate [hydroxytyrosol sulfate isomer 1]	–	–	–	–	–	–	–	–	–	280	323	178	328	118	202	45	593 ± 382 relative chromatographic area	3 ± 3 h	–
kaempferol sulfate	172 ± 102 relative chromatographic area	1.1 ± 0.3 h	25	165	59	0	0	0	0	–	–	–	–	–	–	–	–	–	–

— PMC11544713, “The Application of Untargeted Metabolomic Approaches for the Search of Common Bioavailable Metabolites in Human Plasma Samples from Lippia citriodora and Olea europaea Extracts” (Journal of Agricultural and Food Chemistry, 2024)
